One compound from article PMC6089211, “Expression and purification of human diacylglycerol kinase α from baculovirus-infected insect cells for structural studies” (PeerJ, 2018) can be followed below.

The experiment deals with T1, diacylglycerol kinase α (DGKα) (Homo sapiens, UniProt P23743).
T1 construct: gene DGKA; full-length DGKα (aa 1–735), N-terminal His×6 tag, Sf9-expressed
Nature of the experiment: Michaelis–Menten kinetics, mixed micelle ADP-Glo assay (Km). It is filed as biochemical.

T1 sequence (P23743 whole entry, the tested form may be a part): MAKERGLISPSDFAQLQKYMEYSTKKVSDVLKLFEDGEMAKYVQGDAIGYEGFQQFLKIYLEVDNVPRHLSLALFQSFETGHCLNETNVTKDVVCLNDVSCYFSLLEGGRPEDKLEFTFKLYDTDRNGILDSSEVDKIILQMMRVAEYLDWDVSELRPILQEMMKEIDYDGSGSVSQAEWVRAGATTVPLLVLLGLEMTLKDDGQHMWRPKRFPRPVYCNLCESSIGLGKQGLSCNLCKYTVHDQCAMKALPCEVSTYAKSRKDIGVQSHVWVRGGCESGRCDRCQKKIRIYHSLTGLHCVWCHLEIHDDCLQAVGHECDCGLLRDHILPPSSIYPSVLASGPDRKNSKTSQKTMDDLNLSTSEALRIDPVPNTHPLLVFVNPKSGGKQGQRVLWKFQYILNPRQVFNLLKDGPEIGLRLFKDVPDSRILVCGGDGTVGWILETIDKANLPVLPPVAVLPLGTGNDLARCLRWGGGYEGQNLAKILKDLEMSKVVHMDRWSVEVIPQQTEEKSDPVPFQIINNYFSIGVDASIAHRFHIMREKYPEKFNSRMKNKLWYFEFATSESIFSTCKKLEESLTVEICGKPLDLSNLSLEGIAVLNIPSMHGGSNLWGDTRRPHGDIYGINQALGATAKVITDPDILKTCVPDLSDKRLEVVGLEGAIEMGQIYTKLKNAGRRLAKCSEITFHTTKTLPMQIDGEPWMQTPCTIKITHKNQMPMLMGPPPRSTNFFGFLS

Regarding `CCCCCCCC/C=C\CCCCCCCC(=O)OC[C@H](CO)OC(=O)CCCCCCC/C=C\CCCCCCCC` [1,2-dioleolyl-sn-glycerol], the Km is 1.06 ± 0.21 mol%.
